The source of these data is patent publication US20030077628A1, “Method of screening compounds for biological activity” (priority 2002, published 2003).

The assay deals with receptor B-subunit derived from the Escherichia coli O157 toxin (Bacteriophage H30, UniProt P69178). It counts as binding. The conditions noted are these: pH 7.
Sequence of receptor B-subunit derived from the Escherichia coli O157 toxin (P69178 21-89 limits assumed): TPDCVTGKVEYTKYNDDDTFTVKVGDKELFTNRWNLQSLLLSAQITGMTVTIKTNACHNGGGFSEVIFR

In the case of `OC[C@H]1O[C@@H](O[C@H]2[C@H](O)[C@@H](O)C(O)O[C@@H]2CO)[C@H](O)[C@@H](O)[C@H]1O` (some centres unmarked) [Galβ1-4Glc, lactose], the “change of ligand resonances (one-bond 13C-1H splittings) in the presence of the receptor” value is reported as “unchanged”.
`OC[C@H]1O[C@H](O[C@@H]2[C@H](O)[C@@H](O)[C@H](O[C@H]3[C@H](O)[C@@H](O)C(O)O[C@@H]3CO)O[C@@H]2CO)[C@H](O)[C@@H](O)[C@H]1O` (some centres unmarked) [Galα1-4Galβ1-4Glc]: the “change of ligand resonances (one-bond 13C-1H splittings) in the presence of the receptor” value is reported as “shifted”.
